The values that follow come from patent publication US8119661B2, “Piperidine derivatives and their use as muscarinic receptor modulators” (AstraZeneca AB, priority 2007, dated 2012).

In assay [1] the target is T1, hM1 (human Muscarinic receptor subtype 1) (Homo sapiens, UniProt P11229).
T1 construct: expressed in transfected cells; host or cells: CHO cells (Chinese hamster ovary cells, ATCC)
T1 sequence (P11229 1-460): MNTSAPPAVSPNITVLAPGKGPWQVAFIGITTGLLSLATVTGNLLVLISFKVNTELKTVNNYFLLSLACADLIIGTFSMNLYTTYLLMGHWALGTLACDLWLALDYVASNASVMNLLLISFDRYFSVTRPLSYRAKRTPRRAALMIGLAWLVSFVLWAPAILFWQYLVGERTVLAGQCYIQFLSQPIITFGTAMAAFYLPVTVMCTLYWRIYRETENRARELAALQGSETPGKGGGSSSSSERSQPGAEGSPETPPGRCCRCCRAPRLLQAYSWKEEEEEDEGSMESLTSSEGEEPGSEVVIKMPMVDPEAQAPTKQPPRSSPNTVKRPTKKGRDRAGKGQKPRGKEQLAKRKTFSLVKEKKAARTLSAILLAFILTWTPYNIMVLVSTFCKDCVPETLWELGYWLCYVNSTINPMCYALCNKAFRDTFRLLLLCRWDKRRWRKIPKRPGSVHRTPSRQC
The assay can be described thus: Human M1 calcium mobilization FLIPR assay. Format: cell-based. Particulars: CHO cells expressing hM1, intracellular Ca2+ release. The protocol:
The compound activity in the present invention (EC50 or IC50) is measured using a 384 plate-based imaging assay that monitors drug induced intracellular Ca^2+ release in whole cells. Activation of hM1 (human Muscarinic receptor subtype 1, gene bank access NM_000738), rM1 (rat Muscarinic receptor subtype 1, gene bank access NM_080773), hM3 (human Muscarinic receptor subtype 3, gene bank access NM_000740NM_000740) and hM5 (human Muscarinic receptor subtype 5, gene bank access NM_0121258), receptors expressed in CHO cells (Chinese hamster ovary cells, ATCC) is quantified in a Molecular Devices FLIPR II™ instrument as an increase in fluorescent signal. Inhibition of hM3 and hM5 by compounds is determined by the decrease in fluorescent signal in response to 2 nM acetylcholine activation.
Prior to experiment, the cell culture medium is removed from the plates by inversion. […] Plates are incubated at 37° C. for 60 minutes prior to start the experiment. The incubation is terminated by washing the cells four times in assay buffer, leaving a residual 25 μl buffer per well. Cell plates are then transferred to the FLIPR, ready for compound additions.
The day of experiment, acetylcholine and compounds are diluted in assay buffer in three-fold concentration range (10 points serial dilution) for addition by FLIPR instrument. For all calcium assays, a baseline reading is taken for 10 seconds followed by the addition of 12.5 μl of compounds, resulting in a total well volume of 37.5 μl. Data is collected every second for 60 pictures and then every 6 seconds for 20 pictures prior to the addition of agonist. For hM3 and hM5, before agonist addition, a second baseline reading is taken for 10 seconds followed by the addition of 12.5 μl of agonist or buffer, producing a final volume of 50 μl. After agonist stimulation, the FLIPR continues to collect data every second for 60 pictures and then every 6 seconds for 20 pictures. The fluorescence emission is read using filter 1 (emission 510-570 nm) by the FLIPR on board CCD camera.
Calcium mobilization output data are calculated as the maximal relative fluorescence unit (RFU) minus the minimal value for both compound and agonist reading frame (except for hM1 and rM1 using only the maximal RFU). Data are analyzed using sigmoidal fits of a non-linear curve-fitting program (XLfit version 4.2.2 Excel add-in version 4.2.2 build 18 math 1Q version 2.1.2 build 18). All pEC50 and pIC50 values are reported as arithmetic means±standard error of mean of ‘n’ independent experiments.

The subject of assay [2] is SNL rats (heat hyperalgesia). The assay can be described thus: Rat SNL heat hyperalgesia assay. It counts as in vivo. Particulars: sc, male Sprague Dawley SNL rats, paw withdrawal latency, morphine s.c. 30 min before testing, example 2 per os 60 min before testing, combination ratio example 2:morphine 1:1.56.
Experimental: Rats undergo spinal nerve ligation surgery as described in Kim and Chung (1992) (reference 1). Briefly, rats are anesthetized with isoflurane, the left L5 and L6 are isolated and tightly ligated with 4-0 silk thread. The wound is closed by suturing and applying tissue adhesive. Compound testing is performed at day 9 to day 36 post-surgery.
For behavioral testing, the animals are acclimatized to the test room environment for a minimum of 30 min. In order to assess the degree of hyperalgesia, the animals are placed on a glass surface (maintained at 30° C.), and a heat-source is focused onto the plantar surface of the left paw. The time from the initiation of the heat until the animal withdraws the paw is recorded. Each animal is tested twice (with an interval of 10 min between the two tests). A decrease in Paw Withdrawal Latency (PWL, average of the two tests) relative to naïve animals indicates a hyperalgesic state. The rats with a PWL of at least 2 seconds less than average PWL of Naïve group are selected for compound testing. […]
In order to assess the degree of heat hyperalgesia, the rats were individually placed in Plexiglas boxes on the glass surface (maintained at 30° C.) of a paw thermal stimulator system (Model 390, series 8, IITC Life Science, Woodland Hills, USA) and allowed to acclimate for 30 min. […] Paw withdrawal latencies (PWLs) were calculated as the mean of the two values.

In general, EC50 refers to the concentration that produces a half-maximal response. For `CC#CCOC(=O)N1CCC(C)(N2CCC(N3C(=O)N[C@H]4CCCC[C@@H]43)CC2)C1` (single isomer, unassigned) [Example 20], the EC50 in assay [1] is 257 nM.
Broadly, the ED50 is the dose at which the effect has come halfway, by size or by number of responders. As to `CN1CC[C@]23c4c5ccc(O)c4O[C@H]2[C@@H](O)C=C[C@H]3[C@H]1C5` [Morphine, reference compound], the ED50 in assay [2] was determined as 3.8 µmol/kg.
